Assay results published in ChEMBL document CHEMBL5154769, “Discovery of the First-in-Class Agonist-Based SOS1 PROTACs Effective in Human Cancer Cells Harboring Various KRAS Mutations” (J Med Chem, 2022).
Calls of active or inactive are those of the source. No cut-off for these calls is given here.

How the values were obtained:
[1] = molecular target: T1, von Hippel-Lindau disease tumor suppressor/Son of sevenless homolog 1 (Homo sapiens, UniProt Q07889+P40337); experiment: Protac activity at VHL/SOS1 in human NCI-H358 cells assessed as SOS1 protein degradation at 0.1 uM incubated for 24 hr by Western blot analysis relative to control; type: cell-based
Target sequence in this assay (P40337 whole entry, looked up): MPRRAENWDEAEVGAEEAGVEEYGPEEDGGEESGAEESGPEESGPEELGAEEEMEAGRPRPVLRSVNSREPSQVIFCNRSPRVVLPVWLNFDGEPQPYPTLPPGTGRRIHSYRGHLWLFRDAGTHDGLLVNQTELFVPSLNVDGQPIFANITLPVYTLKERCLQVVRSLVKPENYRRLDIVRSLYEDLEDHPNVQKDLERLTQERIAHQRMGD
Target sequence in this assay (Q07889 whole entry, looked up): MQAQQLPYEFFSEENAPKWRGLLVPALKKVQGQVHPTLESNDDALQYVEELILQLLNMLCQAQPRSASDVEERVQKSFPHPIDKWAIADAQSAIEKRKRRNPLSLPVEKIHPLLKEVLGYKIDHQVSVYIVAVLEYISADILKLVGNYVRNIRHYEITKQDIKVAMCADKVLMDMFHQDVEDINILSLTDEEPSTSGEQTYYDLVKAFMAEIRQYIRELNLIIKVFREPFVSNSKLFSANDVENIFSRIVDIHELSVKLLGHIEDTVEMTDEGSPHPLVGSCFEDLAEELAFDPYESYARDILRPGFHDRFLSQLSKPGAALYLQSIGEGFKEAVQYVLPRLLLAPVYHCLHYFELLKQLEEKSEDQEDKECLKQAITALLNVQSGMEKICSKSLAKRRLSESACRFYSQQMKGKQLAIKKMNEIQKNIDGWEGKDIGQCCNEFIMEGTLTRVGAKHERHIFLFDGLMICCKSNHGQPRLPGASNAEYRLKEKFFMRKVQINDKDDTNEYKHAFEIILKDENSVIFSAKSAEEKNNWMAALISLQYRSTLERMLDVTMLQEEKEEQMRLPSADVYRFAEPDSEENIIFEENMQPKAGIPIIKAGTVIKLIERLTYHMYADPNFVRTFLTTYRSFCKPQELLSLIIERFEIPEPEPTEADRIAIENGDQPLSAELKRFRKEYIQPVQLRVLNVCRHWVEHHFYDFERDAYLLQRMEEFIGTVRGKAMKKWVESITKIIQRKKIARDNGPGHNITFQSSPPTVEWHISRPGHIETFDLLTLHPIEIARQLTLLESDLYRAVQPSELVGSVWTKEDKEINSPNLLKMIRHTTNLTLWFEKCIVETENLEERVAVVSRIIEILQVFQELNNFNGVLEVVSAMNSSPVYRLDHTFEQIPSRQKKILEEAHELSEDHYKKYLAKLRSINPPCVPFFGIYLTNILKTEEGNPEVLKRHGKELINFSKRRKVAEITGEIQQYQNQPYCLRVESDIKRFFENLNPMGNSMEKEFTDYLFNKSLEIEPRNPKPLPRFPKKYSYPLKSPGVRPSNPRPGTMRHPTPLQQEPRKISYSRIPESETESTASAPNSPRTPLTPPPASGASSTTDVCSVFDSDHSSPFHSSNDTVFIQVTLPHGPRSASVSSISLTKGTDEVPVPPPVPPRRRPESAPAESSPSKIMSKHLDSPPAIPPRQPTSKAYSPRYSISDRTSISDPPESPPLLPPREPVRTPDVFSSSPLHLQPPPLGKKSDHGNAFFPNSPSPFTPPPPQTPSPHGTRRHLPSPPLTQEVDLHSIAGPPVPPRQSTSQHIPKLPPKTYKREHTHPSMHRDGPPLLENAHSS

[2] = molecular target: T1, von Hippel-Lindau disease tumor suppressor/Son of sevenless homolog 1; experiment: Protac activity at VHL/SOS1 in human NCI-H358 cells assessed as SOS1 protein degradation at 1 uM incubated for 24 hr by Western blot analysis relative to control; type: cell-based
Target sequence in this assay (P40337 whole entry, looked up): as the sequence (P40337 whole entry, looked up) above
Target sequence in this assay (Q07889 whole entry, looked up): as the sequence (Q07889 whole entry, looked up) above

[3] = molecular target: Von Hippel-Lindau disease tumor suppressor/Elongin B/Elongin C (Homo sapiens, UniProt P40337); experiment: Binding affinity to VCB E3 ligase (unknown origin) assessed as binary equilibrium dissociation constant by surface plasmon resonance analysis; type: protein-complex assay
Homo sapiens = species on record: Homo sapiens; experiment: Co-operativity factor, Ratio of Kd for Binding affinity to VCB E3 ligase (unknown origin) assessed as binary equilibrium dissociation constant to Kd for binding affinity to SOS1/VCB E3 ligase (unknown origin) assessed as ternary dissociation constant
NCI-H358 [4] = experiment: Antiproliferative activity against human NCI-H358 cells harboring KRAS G12C mutant assessed as growth inhibition incubated for 7 days by CellTiter-Glo 3D cell viability assay; type: functional, cell-based; details: NCI-H358, 168 h
ASPC1 = experiment: Antiproliferative activity against human ASPC1 cells harboring KRAS G12D mutant assessed as cell growth inhibition incubated for 7 days by CellTiter-Glo 3D cell viability assay; type: functional, cell-based; details: ASPC1, 168 h
SK-LU-1 = experiment: Antiproliferative activity against human SK-LU-1 cells harboring KRAS G12D mutant assessed as cell growth inhibition incubated for 7 days by CellTiter-Glo 3D cell viability assay; type: functional, cell-based; details: SK-LU-1, 168 h
[5] = molecular target: T1, von Hippel-Lindau disease tumor suppressor/Son of sevenless homolog 1; experiment: Protac activity at VHL/SOS1 in human A549 cells harboring KRAS […] mutant assessed as SOS1 protein degradation incubated for 24 hr by Western blot analysis; type: cell-based
Target sequence in this assay (P40337 whole entry, looked up, change not shown): as the sequence (P40337 whole entry, looked up) above
Target sequence in this assay (Q07889 whole entry, looked up, change not shown): as the sequence (Q07889 whole entry, looked up) above

HEK-293T = experiment: Cytotoxicity against human HEK-293T cells assessed as cell growth inhibition incubated for 7 days by CellTiter-Glo 3D cell viability assay; type: toxicity, cell-based; details: 168 h, time 7 day
NCI-H358 [6] = experiment: Effect of compound on human NCI-H358 cells stimulated with EGF assessed as decrease in KRAS-GTP level incubated for 24 hr by RAS-G-LISA assay; type: functional, cell-based
[7] = Observed MRT (infinity) in BALB/c mouse at 10 mg/kg, ip measured after 24 hrs by LC-MS/MS analysis; type: ADME, organism-based; details: in vivo
[8] = Toxicity in BALB/c nude mouse xenografted with human NCI-H358 cells assessed as effect on body weight at 10 to 20 mg/kg/day, ip for 21 days and measured every 3 day; type: organism-based; details: in vivo, 504 h, dose 10-20 mg/kg/day, time 21 day
[9] = Toxicity in BALB/c nude mouse xenografted with human NCI-H358 cells assessed as effect on body weight at 20 to 50 mg/kg, IT twice weekly for 5 weeks; type: organism-based; details: in vivo, other, 840 h, dose 20-50 mg/kg
Mus musculus = experiment: In vivo degradation of SOS1 in BALB/c nude mouse xenografted with human NCI-H358 cells at 20 to 50 mg/kg, IT incubated for 21 days by immunohistochemistry analysis; type: functional, organism-based; details: dose 20-50 mg/kg, time 21.0 day

Sequence of Von Hippel-Lindau disease tumor suppressor/Elongin B/Elongin C (P40337 whole entry, looked up): as the sequence (P40337 whole entry, looked up) above

In the case of `Cc1cc(Cn2c(N3CC4(CNC4)C3)nc3c(N4CCN(CCCCCCCCC(=O)N[C@H](C(=O)N5C[C@H](O)C[C@H]5C(=O)N[C@@H](C)c5ccc(-c6scnc6C)cc5)C(C)(C)C)CC4)cc(Cl)cc32)cc(C)c1F`, the Activity [1] is reported as 56.2%, the Activity [2] is reported as 92.5% and the Kd [3] is reported as 56 nM. For the same compound, the Ratio (Homo sapiens) was 15.1, the IC50 (NCI-H358 [4]) was 525 nM and the IC50 (ASPC1) was 307 nM. For the same compound, the IC50 (SK-LU-1) was 115 nM, the DC50 [5] was 22 nM and the Activity (HEK-293T) was “Non-Toxic”. For the same compound, the Activity (NCI-H358 [6]) was “Active”, the MRT inf [7] was 10.2 h and the Activity [8] was “Non-Toxic”. The Activity [9] was “Non-Toxic” and the Activity (Mus musculus) was “Active”.
